Columns and labels:
[1] = Phase 1 study in AML or high risk MDS: safety (DLT); assay type: in vivo
Description: This study will be conducted in 2 parts: an initial dose escalation and dose expansion phase. […] Three patients with AML or MDS will be enrolled at the designated dose. If none of the first 3 patients experience a DLT during the first cycle, patients may be enrolled into the next higher dose level of 300 mg bid until a safe and effective RP2D is established.
This study is expected to enroll approximately 18 patients to establish the initial RP2D.
The major study inclusion and exclusion criteria are as follows: Relapsed or refractory AML (primary or secondary, including treatment-related) after at least one standard treatment (including chemotherapy, re-induction therapy or stem cell transplantation) based on the assessment of the investigator or high/very high risk relapsed/refractory MDS (IPSS—R criteria), following at least 6 cycles of hypomethylating agents [HMA] or evidence of early progression.

[2] = Phase I dose escalation trial in NHL: safety and tolerance (adverse effects, DLT)
Description: Seven dosing cohorts included 50 and 100 mg QD, and 50, 100, 200, 300, or 400 mg BID of daily continuous oral monotherapy in 21-Day cycles. Objective included safety and tolerance (primary), pk/pd and early efficacy (secondary), and biomarker correlations (exploratory). 31 patients with resistant or refractory, advanced NHL have been enrolled.

[3] = 200 mg BID, N = 5, [E] not defined

With `Cc1cc(-c2nc(C(=O)Nc3cc4oc(N5CCOCC5)nc4nc3N3CC[C@@H](O)C3)co2)ccn1` [Compound 1, emavusertib] the DLT ([1]; Cohort 1, 200 mg BID, 3 patients with hr-MDS, 1st cycle) was “No DLT”, the “dose reduction for Gr. 3 dizziness” value ([1]; Cohort 1, 200 mg BID, C2) was 1 and the DLT ([1]; Cohort 2, 300 mg BID, first 3 patients) was “No DLT”. The “Back pain, All Grades” value ([2]; 200 mg BID (n = 5)) was 20%, the “Back pain, Grade 3 or 4” value ([2]; 200 mg BID (n = 5)) was 0% and the “Constipation, All Grades” value ([2]; 200 mg BID (n = 5)) was 20%. The “Constipation, Grade 3 or 4” value ([2]; 200 mg BID (n = 5)) was 0%, the “Cough, All Grades” value ([2]; 200 mg BID (n = 5)) was 40% and the “Cough, Grade 3 or 4” value ([2]; 200 mg BID (n = 5)) was 0%. For the same compound, the “Dehydration, All Grades” value ([2]; 200 mg BID (n = 5)) was 20%, the “Dehydration, Grade 3 or 4” value ([2]; 200 mg BID (n = 5)) was 0% and the “Diarrhea, All Grades” value ([2]; 200 mg BID (n = 5)) was 20%. The “Diarrhea, Grade 3 or 4” value ([2]; 200 mg BID (n = 5)) was 0%, the “Dizziness, All Grades” value ([2]; 200 mg BID (n = 5)) was 0% and the “Dizziness, Grade 3 or 4” value ([2]; 200 mg BID (n = 5)) was 0%. The “Dyspnoe, All Grades” value ([2]; 200 mg BID (n = 5)) was 20%, the “Dyspnoe, Grade 3 or 4” value ([2]; 200 mg BID (n = 5)) was 0% and the “Fatigue, All Grades” value ([2]; 200 mg BID (n = 5)) was 40%. For the same compound, the “Fatigue, Grade 3 or 4” value ([2]; 200 mg BID (n = 5)) was 0%, the “Headache, All Grades” value ([2]; 200 mg BID (n = 5)) was 20% and the “Headache, Grade 3 or 4” value ([2]; 200 mg BID (n = 5)) was 0%. For the same compound, the “Insomnia, All Grades” value ([2]; 200 mg BID (n = 5)) was 20%, the “Insomnia, Grade 3 or 4” value ([2]; 200 mg BID (n = 5)) was 0% and the “Muscle weakness, All Grades” value ([2]; 200 mg BID (n = 5)) was 20%. For the same compound, the “Muscle weakness, Grade 3 or 4” value ([2]; 200 mg BID (n = 5)) was 20%, the “Myalgia, All Grades” value ([2]; 200 mg BID (n = 5)) was 40% and the “Myalgia, Grade 3 or 4” value ([2]; 200 mg BID (n = 5)) was 0%. The “Nausea, All Grades” value ([2]; 200 mg BID (n = 5)) was 20%, the “Nausea, Grade 3 or 4” value ([2]; 200 mg BID (n = 5)) was 0% and the “Oedema, All Grades” value ([2]; 200 mg BID (n = 5)) was 25%. The “Oedema, Grade 3 or 4” value ([2]; 200 mg BID (n = 5)) was 0%, the “Peripheral sensory neuropathy, All Grades” value ([2]; 200 mg BID (n = 5)) was 0% and the “Peripheral sensory neuropathy, Grade 3 or 4” value ([2]; 200 mg BID (n = 5)) was 0%. For the same compound, the “Rhabdomyolysis, All Grades” value ([2]; 200 mg BID (n = 5)) was 0%, the “Rhabdomyolysis, Grade 3 or 4” value ([2]; 200 mg BID (n = 5)) was 0% and the “Upper respiratory infection, All Grades” value ([2]; 200 mg BID (n = 5)) was 40%. For the same compound, the “Upper respiratory infection, Grade 3 or 4” value ([2]; 200 mg BID (n = 5)) was 20%, the “Vomiting, All Grades” value ([2]; 200 mg BID (n = 5)) was 20% and the “Vomiting, Grade 3 or 4” value ([2]; 200 mg BID (n = 5)) was 0%. The “Anemia, All Grades” value ([2]; 200 mg BID, N = 5) was 1 (20.0) n (%), the “Anemia, Grade 3 or Higher” value ([2]; 200 mg BID, N = 5) was 0 n (%) and the “Neutropenia, All Grades” value ([2]; 200 mg BID, N = 5) was 2 (40.0) n (%). The “Neutropenia, Grade 3 or Higher” value ([2]; 200 mg BID, N = 5) was 2 (40.0) n (%), the “Thrombocytopenia, All Grades” value ([2]; 200 mg BID, N = 5) was 0 n (%) and the “Thrombocytopenia, Grade 3 or Higher” value ([2]; 200 mg BID, N = 5) was 0 n (%). For the same compound, the “Anemia, All Grades [E]” value [2, 3] was “[1]”, the “Neutropenia, All Grades [E]” value [2, 3] was “[3]” and the “Neutropenia, Grade 3 or Higher [E]” value [2, 3] was “[2]”. For the same compound, the “Back pain, All Grades” value ([2]; 300 mg BID (n = 6)) was 0%, the “Back pain, Grade 3 or 4” value ([2]; 300 mg BID (n = 6)) was 0% and the “Constipation, All Grades” value ([2]; 300 mg BID (n = 6)) was 0%. For the same compound, the “Constipation, Grade 3 or 4” value ([2]; 300 mg BID (n = 6)) was 0%, the “Cough, All Grades” value ([2]; 300 mg BID (n = 6)) was 0% and the “Cough, Grade 3 or 4” value ([2]; 300 mg BID (n = 6)) was 0%. For the same compound, the “Dehydration, All Grades” value ([2]; 300 mg BID (n = 6)) was 0%, the “Dehydration, Grade 3 or 4” value ([2]; 300 mg BID (n = 6)) was 0% and the “Diarrhea, All Grades” value ([2]; 300 mg BID (n = 6)) was 40%. For the same compound, the “Diarrhea, Grade 3 or 4” value ([2]; 300 mg BID (n = 6)) was 0%, the “Dizziness, All Grades” value ([2]; 300 mg BID (n = 6)) was 0% and the “Dizziness, Grade 3 or 4” value ([2]; 300 mg BID (n = 6)) was 0%. The “Dyspnoe, All Grades” value ([2]; 300 mg BID (n = 6)) was 0%, the “Dyspnoe, Grade 3 or 4” value ([2]; 300 mg BID (n = 6)) was 0% and the “Fatigue, All Grades” value ([2]; 300 mg BID (n = 6)) was 0%. The “Fatigue, Grade 3 or 4” value ([2]; 300 mg BID (n = 6)) was 0%, the “Headache, All Grades” value ([2]; 300 mg BID (n = 6)) was 0% and the “Headache, Grade 3 or 4” value ([2]; 300 mg BID (n = 6)) was 0%. The “Insomnia, All Grades” value ([2]; 300 mg BID (n = 6)) was 0%, the “Insomnia, Grade 3 or 4” value ([2]; 300 mg BID (n = 6)) was 0% and the “Muscle weakness, All Grades” value ([2]; 300 mg BID (n = 6)) was 0%. For the same compound, the “Muscle weakness, Grade 3 or 4” value ([2]; 300 mg BID (n = 6)) was 0%, the “Myalgia, All Grades” value ([2]; 300 mg BID (n = 6)) was 0% and the “Myalgia, Grade 3 or 4” value ([2]; 300 mg BID (n = 6)) was 0%. For the same compound, the “Nausea, All Grades” value ([2]; 300 mg BID (n = 6)) was 17%, the “Nausea, Grade 3 or 4” value ([2]; 300 mg BID (n = 6)) was 0% and the “Oedema, All Grades” value ([2]; 300 mg BID (n = 6)) was 0%.

Source: patent US20260183301A1, “TREATING DISEASES AND DISORDERS WITH IRAK4-MODIFYING COMPOUNDS” (Curis, Inc., priority 2022, published 2026)
